Assay results: US7402585B2, “Substituted quinazoline derivatives as inhibitors of aurora kinases” (AstraZeneca AB, priority 2001, dated 2008)

Key:
[1] = test system: SW620 cells; assay: In vitro cell proliferation assay (BrdU incorporation); format: cell-based; details: SW-620; SW620 human tumour cell line, 48 hours with compound, 2 hour BrdU labelling; read-out: concentration active (50% inhibition of BrdU incorporation)
Excerpt: (c) In Vitro Cell Proliferation Assay
This and other assays can be used to determine the ability of a test compound to inhibit the growth of adherent mammalian cell lines, for example the human tumour cell line SW620 (ATCC CCL-227). This assay determines the ability of at test compound to inhibit the incorporation of the thymidine analogue, 5′-bromo-2′-deoxy-uridine (BrdU) into cellular DNA. SW620 or other adherent cells were typically seeded at 1×10^5 cells per well in L-15 media (GIBCO) plus 5% foetal calf serum, 1% L-glutamine (100 μl/well) in 96 well tissue culture treated 96 well plates (Costar) and allowed to adhere overnight. […] The optical density of the wells was then determined at 690 nm wavelength using a Titertek Multiscan plate reader. […]

[2] = target: T1, Aurora-A kinase (Homo sapiens, UniProt O14965); assay: In vitro Aurora-A kinase inhibition test; format: biochemical
T1 construct: 6His (with spacer region and rTEV protease cleavage site from pFastBac HTc) (N); made in house; host or cells: Spodoptera frugiperda Sf21 insect cells (baculovirus, pFastBac HTc)
T1 sequence (O14965 1-403): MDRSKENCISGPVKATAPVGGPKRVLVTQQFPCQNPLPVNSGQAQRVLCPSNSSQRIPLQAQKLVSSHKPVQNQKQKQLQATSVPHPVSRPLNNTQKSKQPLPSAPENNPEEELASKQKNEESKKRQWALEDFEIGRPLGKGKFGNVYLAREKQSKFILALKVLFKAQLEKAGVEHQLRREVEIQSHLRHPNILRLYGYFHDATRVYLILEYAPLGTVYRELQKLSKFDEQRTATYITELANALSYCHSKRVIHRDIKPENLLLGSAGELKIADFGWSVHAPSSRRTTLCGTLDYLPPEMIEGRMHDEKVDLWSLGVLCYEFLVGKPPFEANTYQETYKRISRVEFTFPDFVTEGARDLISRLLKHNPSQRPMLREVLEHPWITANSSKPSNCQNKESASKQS

Row | SMILES | IC50 [1] | IC50 [2]
1 | COc1cc2c(Nc3cc(CC(=O)Nc4cccc(F)c4)[nH]n3)ncnc2cc1OCCCN1CCC[C@H]1CO [Compound 8, N-(3-fluorophenyl)-2-{3-[(7-{3-[(2S)-2-(hydroxymethyl)pyrrolidin-1-yl]propoxy}-6-methoxyquinazolin-4-yl)amino]-1H-pyrazol-5-yl}acetamide] | 86 nM | 10 nM
2 | COc1cc2c(Nc3cc(CC(=O)Nc4cccc(F)c4)[nH]n3)ncnc2cc1OCCCN(C)CCO [Compound 13, N-(3-fluorophenyl)-2-{3-[(7-{3-[(2-hydroxyethyl)(methyl)amino]propoxy}-6-methoxyquinazolin-4-yl)amino]-1H-pyrazol-5-yl}acetamide] | 79 nM | 1 nM
